{"source": "patent US20230416786A1", "about": "“USE OF AMINOQUINOLINE COMPOUNDS FOR HIGHER GENE INTEGRATION” (CELLECTIS SA, priority 2020, published 2023)", "key": {"HSCs": {"system": "HSCs", "assay": "Targeted integration of HLA-E repair template at the B2M locus in HSCs (B2M TALEN + AAV-HLA-E, flow cytometry of HLA-E positive cells)", "format": "cell-based, human", "description": "(§1) The targeted sequences are […]gctcgcgctactc[…]\nFor HSCs, AAV-HLA-E particles was thawed on ice and aliquot to transduce each of the HSC samples at 10^4 viral genome per cell (vg/cell)."}, "primary T-cells": {"system": "primary T-cells", "conditions": "Example 3, FIG. 3, TRAC TALEN + AAV-CAR-MESO, without chloroquine 29%", "description": "as §1"}}, "note": "Counter-ions that a name gives are not always drawn. Like-named read-outs stand apart in the source and are kept apart here."}
{"compound": "CCN(CC)CCCC(C)Nc1ccnc2cc(Cl)ccc12", "note": "(centres unmarked) [chloroquine, N4-(7-chloroquinolin-4-yl)-N1,N1-diethylpentane-1,4-diamine diphosphate]", "values": [{"measurement": "HLA-E expression (reflects targeted integration at the B2M locus)", "setting": "HSCs; Example 2, FIG. 2, B2M TALEN with HLA-E repair matrix, chloroquine 0.1 mM, without chloroquine 23.4%", "value": "~38", "unit": "%"}, {"measurement": "optimum CQ dose for HLA-E positive cells", "setting": "HSCs; Example 4, FIG. 4, B2M TALEN + AAV-HLA-E", "value": 0.02, "unit": "nM"}, {"measurement": "percentage of HLA-E positive cells", "setting": "HSCs; Example 6, FIG. 6E, B2M TALEN + i53 mRNAs (inhibition of 53BP1) + AAV-HLA-E combined with chloroquine 0.02 mM, control 31.5%", "value": 63.6, "unit": "%"}, {"measurement": "percentage of HLA-E positive cells", "setting": "HSCs; Example 6, FIGS. 6B and 6C, B2M TALEN + AAV-HLA-E, without 53BP1 inhibition, chloroquine 0.02 mM, without any compound 31.5%", "value": 53.4, "unit": "%"}, {"measurement": "CAR positive cells (nuclease-induced targeted integration at TRAC locus)", "setting": "primary T-cells; chloroquine 0.05 mM", "value": 35, "unit": "%"}, {"measurement": "CAR positive cells (nuclease-induced targeted integration at TRAC locus)", "setting": "primary T-cells; second chloroquine concentration (0.1 mM per first sentence)", "value": 33.8, "unit": "%"}]}
{"compound": "CCN(CCO)CCCC(C)Nc1ccnc2cc(Cl)ccc12", "note": "(centres unmarked) [hydroxychloroquine, 7-Chloro-4-[4-(N-ethyl-N-b-hydroxyethylamino)-1-methylbutylamino]quinoline sulfate]", "values": [{"measurement": "percentage of HLA-E positive cells", "setting": "HSCs; Example 5, FIG. 5, B2M TALEN + AAV-HLA-E, compound 0.02 mM, without any compound 33.3%", "value": 43.4, "unit": "%"}]}
{"compound": "i53: mRNAs encoding i53 (SEQ ID NO. 40), a 53BP1 inhibitor, co-electroporated with B2M TALEN", "values": [{"measurement": "percentage of HLA-E positive cells", "setting": "HSCs; Example 6, FIGS. 6B and 6D, B2M TALEN + 4 μg/million cells mRNAs encoding i53 + AAV-HLA-E, without chloroquine, control 31.5%", "value": 39.9, "unit": "%"}]}
